Measured values published in patent US8198273B2, “Compounds and methods for kinase modulation, and indications therefor” (Plexxikon Inc., priority 2009, dated 2012).

Columns and labels:
B-Raf = B-Raf (Homo sapiens, UniProt P15056); experiment: B-Raf biochemical kinase inhibition (AlphaScreen, biotin-MEK1 substrate); details: 100 μM ATP
Procedure, shortened: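 Eight-point compound series (made from a 0.1 mM DMSO stock) tested against each Raf enzyme with biotin-MEK1 substrate and 100 μM final ATP.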

[1] = test system: COLO205 colon adenocarcinoma cells (B-Raf V600E); experiment: COLO205 cell growth inhibition (ATPlite); format: cell-based; details: Homo sapiens, COLO 205, 72 h; COLO205, 3 days incubation
Procedure, shortened: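 ATPlite luminescence, taken as a cell-number measure, gave IC50 values after a 3-day 37° C, 5% CO2 incubation. Compounds were tested as 8-point threefold titrations, highest final concentration 10 μM, added to cells seeded the day before.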

[2] = Relative solubility by turbidity in aqueous buffers of varying pH; format: physicochemical; details: for turbidity threshold (L, M, H) 7.4: HEPES pH 7.4; for turbidity threshold (L, M, H) 4.5: SIF pH 4.5; for turbidity threshold (L, M, H) 6.8: SIF pH 6.8; for turbidity threshold (L, M, H) 1.4: buffer pH 1.4 (SGF)
Procedure, shortened: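 Turbidity endpoint: concentration where optical density at 490, 535 and 650 nm exceeds 0.01, three-wavelength average used. Buffers at pH 1.5, 4.5, 6.8 and 7.4; DMSO serial dilutions of 25 mM stock spiked 1 μL into 99 μL buffer. Low <31.3, moderate 31.3–250, high >250 μM.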

Sequence of B-Raf (P15056 whole entry): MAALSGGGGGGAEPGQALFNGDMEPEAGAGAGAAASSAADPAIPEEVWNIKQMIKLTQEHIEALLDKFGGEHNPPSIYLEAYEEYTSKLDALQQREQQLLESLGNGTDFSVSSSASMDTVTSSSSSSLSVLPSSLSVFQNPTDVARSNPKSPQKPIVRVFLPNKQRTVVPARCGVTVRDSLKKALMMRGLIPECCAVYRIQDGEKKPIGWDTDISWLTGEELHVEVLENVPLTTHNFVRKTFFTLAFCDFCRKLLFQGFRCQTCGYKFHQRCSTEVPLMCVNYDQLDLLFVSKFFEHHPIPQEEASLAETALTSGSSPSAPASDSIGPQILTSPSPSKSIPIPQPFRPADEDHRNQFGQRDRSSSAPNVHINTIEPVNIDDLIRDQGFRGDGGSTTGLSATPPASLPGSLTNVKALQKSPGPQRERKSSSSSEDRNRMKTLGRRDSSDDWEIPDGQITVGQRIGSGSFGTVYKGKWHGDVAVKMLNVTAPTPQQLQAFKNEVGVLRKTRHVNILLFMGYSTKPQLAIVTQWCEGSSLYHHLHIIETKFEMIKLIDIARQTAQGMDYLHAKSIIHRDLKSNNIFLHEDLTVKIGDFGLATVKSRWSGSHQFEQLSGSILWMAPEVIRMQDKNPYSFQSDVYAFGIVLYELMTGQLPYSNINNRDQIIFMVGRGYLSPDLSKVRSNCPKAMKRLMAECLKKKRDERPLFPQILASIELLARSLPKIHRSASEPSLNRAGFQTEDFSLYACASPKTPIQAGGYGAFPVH

Structure (SMILES) | IC50 (B-Raf) | IC50 [1] | turbidity threshold (L, M, H) 7.4 [2] | turbidity threshold (L, M, H) 4.5 [2] | turbidity threshold (L, M, H) 6.8 [2] | turbidity threshold (L, M, H) 1.4 [2]
N#Cc1cnc2[nH]cc(C(=O)c3cccc(NS(=O)(=O)c4ccccc4)c3F)c2c1 [P-2056, N-[3-(5-Cyano-1H-pyrrolo[2,3-b]pyridine-3-carbonyl)-2-fluoro-phenyl]-benzenesulfonamide] | < 100 nM | < 5000 nM | M (moderate solubility if the threshold concentration is 31.3 μM to 250 μM) | L (low solubility if the threshold concentration is <31.3 04) | M (moderate solubility if the threshold concentration is 31.3 μM to 250 μM) | L (low solubility if the threshold concentration is <31.3 04)
Cc1cnc2[nH]cc(C(=O)c3c(F)ccc(NS(=O)(=O)c4cccnc4)c3F)c2c1 [P-2069, Pyridine-3-sulfonic acid [2,4-difluoro-3-(5-methyl-1H-pyrrolo[2,3-b]pyridine-3-carbonyl)-phenyl]-amide] | < 10 nM | < 1000 nM | H (high solubility if the threshold concentration is >250 μM) | M (moderate solubility if the threshold concentration is 31.3 μM to 250 μM) | M (moderate solubility if the threshold concentration is 31.3 μM to 250 μM) | H (high solubility if the threshold concentration is >250 μM)
COc1ncc(-c2cnc3[nH]cc(C(=O)c4c(F)ccc(NS(=O)(=O)c5cc(F)ccc5F)c4F)c3c2)cn1 [P-2042, N-{2,4-Difluoro-3-[5-(2-methoxy-pyrimidin-5-yl)-1H-pyrrolo[2,3-b]pyridine-3-carbonyl]-phenyl}-2,5-difluoro-benzenesulfonamide] | < 10 nM | < 100 nM | L (low solubility if the threshold concentration is <31.3 04) | L (low solubility if the threshold concentration is <31.3 04) | L (low solubility if the threshold concentration is <31.3 04) | L (low solubility if the threshold concentration is <31.3 04)
Cc1cnc2[nH]cc(C(=O)c3c(F)ccc(NS(=O)(=O)c4cc(F)ccc4F)c3F)c2c1 [P-2015, N-[2,4-Difluoro-3-(5-methyl-1H-pyrrolo[2,3-b]pyridine-3-carbonyl)-phenyl]-2,5-difluoro-benzenesulfonamide] | < 100 nM | < 1000 nM | M (moderate solubility if the threshold concentration is 31.3 μM to 250 μM) | L (low solubility if the threshold concentration is <31.3 04) | M (moderate solubility if the threshold concentration is 31.3 μM to 250 μM) | M (moderate solubility if the threshold concentration is 31.3 μM to 250 μM)
CCCS(=O)(=O)Nc1ccc(F)c(C(=O)c2c[nH]c3ncc(C#CCOC)cc23)c1F [P-2239, Propane-1-sulfonic acid {2,4-difluoro-3-[5-(3-methoxy-prop-1-ynyl)-1H-pyrrolo[2,3-b]pyridine-3-carbonyl]-phenyl}-amide] | < 100 nM | < 1000 nM | M (moderate solubility if the threshold concentration is 31.3 μM to 250 μM) | M (moderate solubility if the threshold concentration is 31.3 μM to 250 μM) | L (low solubility if the threshold concentration is <31.3 04) | L (low solubility if the threshold concentration is <31.3 04)
CCCS(=O)(=O)Nc1ccc(F)c(C(=O)c2c[nH]c3ncc(-c4ccc(OCCN5CCOCC5)nc4)cc23)c1F [P-2232, Propane-1-sulfonic acid (2,4-difluoro-3-{5-[6-(2-morpholin-4-yl-ethoxy)-pyridin-3-yl]-1H-pyrrolo[2,3-b]pyridine-3-carbonyl}-phenyl)-amide] | < 10 nM | < 100 nM | L (low solubility if the threshold concentration is <31.3 04) | M (moderate solubility if the threshold concentration is 31.3 μM to 250 μM) | L (low solubility if the threshold concentration is <31.3 04) | M (moderate solubility if the threshold concentration is 31.3 μM to 250 μM)
C#Cc1cnc2[nH]cc(C(=O)c3c(F)ccc(NS(=O)(=O)CCC)c3F)c2c1 [P-2260, Propane-1-sulfonic acid [3-(5-ethynyl-1H-pyrrolo[2,3-b]pyridine-3-carbonyl)-2,4-difluoro-phenyl]-amide] | < 10 nM | < 1000 nM | L (low solubility if the threshold concentration is <31.3 04) | L (low solubility if the threshold concentration is <31.3 04) | L (low solubility if the threshold concentration is <31.3 04) | L (low solubility if the threshold concentration is <31.3 04)
COc1ncc(-c2cnc3[nH]cc(C(=O)c4c(F)ccc(NS(=O)(=O)c5cccc(F)c5)c4F)c3c2)cn1 [P-2045, N-{2,4-Difluoro-3-[5-(2-methoxy-pyrimidin-5-yl)-1H-pyrrolo[2,3-b]pyridine-3-carbonyl]-phenyl}-3-fluoro-benzenesulfonamide] | < 10 nM | < 1000 nM | M (moderate solubility if the threshold concentration is 31.3 μM to 250 μM) | L (low solubility if the threshold concentration is <31.3 04) | L (low solubility if the threshold concentration is <31.3 04) | L (low solubility if the threshold concentration is <31.3 04)
COc1ccnc2[nH]cc(C(=O)c3c(F)ccc(NS(=O)(=O)c4cccc(F)c4)c3F)c12 [P-2023, N-[2,4-Difluoro-3-(4-methoxy-1H-pyrrolo[2,3-b]pyridine-3-carbonyl)-phenyl]-3-fluoro-benzenesulfonamide] | < 10 nM | < 5000 nM | M (moderate solubility if the threshold concentration is 31.3 μM to 250 μM) | M (moderate solubility if the threshold concentration is 31.3 μM to 250 μM) | M (moderate solubility if the threshold concentration is 31.3 μM to 250 μM) | H (high solubility if the threshold concentration is >250 μM)
CCCS(=O)(=O)Nc1ccc(F)c(C(=O)c2c[nH]c3ncc(-c4ccc(NS(C)(=O)=O)cc4)cc23)c1F [P-2165, Propane-1-sulfonic acid {2,4-difluoro-3-[5-(4-methanesulfonylamino-phenyl)-1H-pyrrolo[2,3-b]pyridine-3-carbonyl]-phenyl}-amide] | < 10 nM | < 1000 nM | L (low solubility if the threshold concentration is <31.3 04) | L (low solubility if the threshold concentration is <31.3 04) | L (low solubility if the threshold concentration is <31.3 04) | L (low solubility if the threshold concentration is <31.3 04)
CCCS(=O)(=O)Nc1ccc(F)c(C(=O)c2c[nH]c3ncc(-c4ccc(OCCCN5CCCC5)nc4)cc23)c1F [P-2235, Propane-1-sulfonic acid (2,4-difluoro-3-{5-[6-(3-pyrrolidin-1-yl-propoxy)-pyridin-3-yl]-1H-pyrrolo[2,3-b]pyridine-3-carbonyl}-phenyl)-amide] | < 10 nM | < 100 nM | L (low solubility if the threshold concentration is <31.3 04) | M (moderate solubility if the threshold concentration is 31.3 μM to 250 μM) | L (low solubility if the threshold concentration is <31.3 04) | L (low solubility if the threshold concentration is <31.3 04)
CCCS(=O)(=O)Nc1ccc(F)c(C(=O)c2c[nH]c3ncc(-c4ccc(S(=O)(=O)NC5CC5)cc4)cc23)c1F [P-2168, N-Cyclopropyl-4-{3-[2,6-difluoro-3-(propane-1-sulfonylamino)-benzoyl]-1H-pyrrolo[2,3-b]pyridin-5-yl}-benzenesulfonamide] | < 10 nM | < 100 nM | L (low solubility if the threshold concentration is <31.3 04) | L (low solubility if the threshold concentration is <31.3 04) | L (low solubility if the threshold concentration is <31.3 04) | L (low solubility if the threshold concentration is <31.3 04)
CCCS(=O)(=O)Nc1ccc(F)c(C(=O)c2c[nH]c3ncc(-c4ccc(S(=O)(=O)N5CCOCC5)cc4)cc23)c1F [P-2166, Propane-1-sulfonic acid (2,4-difluoro-3-{5-[4-(morpholine-4-sulfonyl)-phenyl]-1H-pyrrolo[2,3-b]pyridine-3-carbonyl}-phenyl)-amide] | < 10 nM | < 100 nM | L (low solubility if the threshold concentration is <31.3 04) | L (low solubility if the threshold concentration is <31.3 04) | L (low solubility if the threshold concentration is <31.3 04) | L (low solubility if the threshold concentration is <31.3 04)
